Data published in US6737383B1, “Herbicidal oxadiazolidines” (priority 1999, dated 2004).

What was measured:
morningglory = assay: Test B pre/postemergence morningglory; format: in vivo, Ipomoea hederacea; details: for Morningglory plant response rating: scale of 0 to 10 where 0 is no effect and 10 is complete control
Method in brief: (§1)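 Herbicidal effect was estimated by eye on a ten-point control scale after plants spent twelve to sixteen days in a greenhouse following soil or foliar treatment. Foliar sprays targeted plants at one to four leaves; all doses were formulated in a non-phytotoxic solvent with surfactant.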

purple nutsedge = assay: Test B pre/postemergence purple nutsedge; format: in vivo, Cyperus rotundus; details: for Nutsedge plant response rating: scale of 0 to 10 where 0 is no effect and 10 is complete control
Method in brief: as §1

crabgrass = assay: Test B pre/postemergence crabgrass; format: in vivo, Digitaria sanguinalis; details: for Crabgrass plant response rating: scale of 0 to 10 where 0 is no effect and 10 is complete control
Method in brief: as §1

wheat = assay: Test B pre/postemergence wheat; format: in vivo, Triticum aestivum; details: for Wheat plant response rating: scale of 0 to 10 where 0 is no effect and 10 is complete control
Method in brief: as §1

corn = assay: Test B pre/postemergence corn; format: in vivo, Zea mays; details: for Corn plant response rating: scale of 0 to 10 where 0 is no effect and 10 is complete control
Method in brief: as §1

duck salad = assay: Test B flood test duck salad; format: in vivo, Heteranthera limosa
Method in brief: (§2)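 Flood test on plants grown to the 2-leaf stage; treated plants kept in greenhouse twelve to sixteen days, then visually rated against controls on a 0 (no effect) to 10 (complete control) scale.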

rape = assay: Test B pre/postemergence rape; format: in vivo, Brassica napus; details: for Rape plant response rating: scale of 0 to 10 where 0 is no effect and 10 is complete control
Method in brief: as §1

giant foxtail = assay: Test B pre/postemergence giant foxtail; format: in vivo, Setaria faberii; details: for Giant foxtail plant response rating: scale of 0 to 10 where 0 is no effect and 10 is complete control
Method in brief: as §1

soybean = assay: Test B pre/postemergence soybean; format: in vivo, Glycine max; details: for Soybean plant response rating: scale of 0 to 10 where 0 is no effect and 10 is complete control
Method in brief: as §1

bedstraw = assay: Test B pre/postemergence bedstraw; format: in vivo, Galium aparine
Method in brief: as §1

smallflower flatsedge = assay: Test B flood test smallflower flatsedge; format: in vivo, Cyperus difformis
Method in brief: as §2

velvetleaf = assay: Test B pre/postemergence velvetleaf; format: in vivo, Abutilon theophrasti; details: for Velvetleaf plant response rating: scale of 0 to 10 where 0 is no effect and 10 is complete control
Method in brief: as §1

rice = assay: Test B flood test rice; format: in vivo, Oryza sativa
Method in brief: as §2

wild oat = assay: Test B pre/postemergence wild oat; format: in vivo, Avena fatua; details: for Wild oats plant response rating: scale of 0 to 10 where 0 is no effect and 10 is complete control
Method in brief: as §1

pigweed = assay: Test B pre/postemergence pigweed; format: in vivo, Amaranthus retroflexus; details: for Redroot pigweed plant response rating: scale of 0 to 10 where 0 is no effect and 10 is complete control
Method in brief: as §1

cocklebur = assay: Test B pre/postemergence cocklebur; format: in vivo, Xanthium strumarium; details: for Cocklebur plant response rating: scale of 0 to 10 where 0 is no effect and 10 is complete control
Method in brief: as §1

[1] = Postemergence, Rate 125 g/ha, scale 0 to 10, 0 is no effect, 10 is complete control
[2] = Postemergence, Rate 250 g/ha, scale 0 to 10, 0 is no effect, 10 is complete control
[3] = Preemergence, Rate 62 g/ha, scale 0 to 10 (0 no effect, 10 complete control)
[4] = Rate 500 g/ha, Postemergence, scale 0 to 10, 0 no effect, 10 complete control
[5] = Rate 62 g/ha, flood test species, Pre-emergence, visual evaluation after twelve to sixteen days
[6] = Rate 125 g/ha, under heading Pre-emergence, flood test species, visual evaluation after twelve to sixteen days
[7] = Rate 250 g/ha, Pre-emergence, flood-test species, scale 0 to 10, 0 is no effect, 10 is complete control
[8] = Rate 500 g/ha, Pre-emergence, flood test species, scale 0 to 10 (0 no effect, 10 complete control)

CC(C)N(C(=O)n1oc(=O)n(N2C(C)CCCC2C)c1=O)c1ccc(F)cc1F (stereo not shown) [Compound 383]
Plant response rating, Morningglory (morningglory; [1]): 0
Plant response rating, Morningglory (morningglory; [2]): 0
Plant response rating, Morningglory (morningglory; [3]): 0
Morningglory plant response rating (0 to 10 scale) (morningglory; Preemergence, Rate 125 g/ha): 0
Morningglory plant response rating (morningglory; Preemergence, Rate 250 g/ha): 0
Morningglory plant response rating (morningglory; Preemergence, Rate 500 g/ha): 0
Morningglory plant response rating (morningglory; Rate 62 g/ha, Postemergence): 0
Plant response rating, Morningglory (morningglory; [4]): 0
Plant response rating, Nutsedge (purple nutsedge; [1]): 0
Plant response rating, Nutsedge (purple nutsedge; [2]): 0
Plant response rating, Nutsedge (purple nutsedge; [3]): 0
Nutsedge plant response rating (0 to 10 scale) (purple nutsedge; Preemergence, Rate 125 g/ha): 0
Nutsedge plant response rating (purple nutsedge; Preemergence, Rate 250 g/ha): 0
Nutsedge plant response rating (purple nutsedge; Preemergence, Rate 500 g/ha): 0
Nutsedge plant response rating (purple nutsedge; Rate 62 g/ha, Postemergence): 0
Plant response rating, Nutsedge (purple nutsedge; [4]): 0
Plant response rating, Crabgrass (crabgrass; [1]): 1
Plant response rating, Crabgrass (crabgrass; [2]): 4
Plant response rating, Crabgrass (crabgrass; [3]): 6
Crabgrass plant response rating (0 to 10 scale) (crabgrass; Preemergence, Rate 125 g/ha): 8
Crabgrass plant response rating (crabgrass; Preemergence, Rate 250 g/ha): 9
Crabgrass plant response rating (crabgrass; Preemergence, Rate 500 g/ha): 10
Crabgrass plant response rating (crabgrass; Rate 62 g/ha, Postemergence): 0
Plant response rating, Crabgrass (crabgrass; [4]): 4
Plant response rating, Wheat (wheat; [1]): 0
Plant response rating, Wheat (wheat; [2]): 0
Plant response rating, Wheat (wheat; [3]): 0
Wheat plant response rating (0 to 10 scale) (wheat; Preemergence, Rate 125 g/ha): 0
Wheat plant response rating (wheat; Preemergence, Rate 250 g/ha): 0
Wheat plant response rating (wheat; Preemergence, Rate 500 g/ha): 0
Wheat plant response rating (wheat; Rate 62 g/ha, Postemergence): 0
Plant response rating, Wheat (wheat; [4]): 0
Plant response rating, Corn (corn; [1]): 0
Plant response rating, Corn (corn; [2]): 0
Plant response rating, Corn (corn; [3]): 0
Corn plant response rating (0 to 10 scale) (corn; Preemergence, Rate 125 g/ha): 0
Corn plant response rating (corn; Preemergence, Rate 250 g/ha): 0
Corn plant response rating (corn; Preemergence, Rate 500 g/ha): 0
Corn plant response rating (corn; Rate 62 g/ha, Postemergence): 0
Plant response rating, Corn (corn; [4]): 0
Plant response rating, Ducksalad (0 to 10 scale, 0 is no effect, 10 is complete control) (duck salad; [5]): 0
Ducksalad plant response rating (0 to 10 scale, 0 is no effect, 10 is complete control) (duck salad; [6]): 0
Ducksalad plant response rating (duck salad; [7]): 0
Ducksalad plant response rating (duck salad; [8]): 0
Plant response rating, Rape (rape; [1]): 0
Plant response rating, Rape (rape; [2]): 0
Plant response rating, Rape (rape; [3]): 0
Rape plant response rating (0 to 10 scale) (rape; Preemergence, Rate 125 g/ha): 0
Rape plant response rating (rape; Preemergence, Rate 250 g/ha): 0
Rape plant response rating (rape; Preemergence, Rate 500 g/ha): 0
Rape plant response rating (rape; Rate 62 g/ha, Postemergence): 0
Plant response rating, Rape (rape; [4]): 0
Plant response rating, Giant foxtail (giant foxtail; [1]): 0
Plant response rating, Giant foxtail (giant foxtail; [2]): 6
Plant response rating, Giant foxtail (giant foxtail; [3]): 0
Giant foxtail plant response rating (0 to 10 scale) (giant foxtail; Preemergence, Rate 125 g/ha): 7
Giant foxtail plant response rating (giant foxtail; Preemergence, Rate 250 g/ha): 10
Giant foxtail plant response rating (giant foxtail; Preemergence, Rate 500 g/ha): 10
Giant foxtail plant response rating (giant foxtail; Rate 62 g/ha, Postemergence): 0
Plant response rating, Giant foxtail (giant foxtail; [4]): 6
Plant response rating, Soybean (soybean; [1]): 3
Plant response rating, Soybean (soybean; [2]): 3
Plant response rating, Soybean (soybean; [3]): 0
Soybean plant response rating (0 to 10 scale) (soybean; Preemergence, Rate 125 g/ha): 0
Soybean plant response rating (soybean; Preemergence, Rate 250 g/ha): 0
Soybean plant response rating (soybean; Preemergence, Rate 500 g/ha): 0
Soybean plant response rating (soybean; Rate 62 g/ha, Postemergence): 2
Plant response rating, Soybean (soybean; [4]): 5
Plant response rating, Bedstraw (bedstraw; [1]): 0
Plant response rating, Bedstraw (bedstraw; [2]): 0
Plant response rating, Bedstraw (bedstraw; [3]): 0
Plant response rating, Bedstraw (bedstraw; [4]): 0
Plant response rating, S. Flatsedge (0 to 10 scale, 0 is no effect, 10 is complete control) (smallflower flatsedge; [5]): 0
S. Flatsedge plant response rating (0 to 10 scale, 0 is no effect, 10 is complete control) (smallflower flatsedge; [6]): 0
S. Flatsedge plant response rating (smallflower flatsedge; [7]): 0
S. Flatsedge plant response rating (smallflower flatsedge; [8]): 0
Plant response rating, Velvetleaf (velvetleaf; [1]): 0
Plant response rating, Velvetleaf (velvetleaf; [2]): 0
Plant response rating, Velvetleaf (velvetleaf; [3]): 0
Velvetleaf plant response rating (0 to 10 scale) (velvetleaf; Preemergence, Rate 125 g/ha): 0
Velvetleaf plant response rating (velvetleaf; Preemergence, Rate 250 g/ha): 0
Velvetleaf plant response rating (velvetleaf; Preemergence, Rate 500 g/ha): 0
Velvetleaf plant response rating (velvetleaf; Rate 62 g/ha, Postemergence): 0
Plant response rating, Velvetleaf (velvetleaf; [4]): 0
Plant response rating, Rice (0 to 10 scale, 0 is no effect, 10 is complete control) (rice; [5]): 0
Rice plant response rating (0 to 10 scale, 0 is no effect, 10 is complete control) (rice; [6]): 0
Rice plant response rating (rice; [7]): 0
Rice plant response rating (rice; [8]): 0
Plant response rating, Wild oats (wild oat; [1]): 0
Plant response rating, Wild oats (wild oat; [2]): 0
Plant response rating, Wild oats (wild oat; [3]): 0
Wild oats plant response rating (0 to 10 scale) (wild oat; Preemergence, Rate 125 g/ha): 0
Wild oats plant response rating (wild oat; Preemergence, Rate 250 g/ha): 0
Wild oats plant response rating (wild oat; Preemergence, Rate 500 g/ha): 0
Wild oats plant response rating (wild oat; Rate 62 g/ha, Postemergence): 0
Plant response rating, Wild oats (wild oat; [4]): 0
Plant response rating, Redroot pigweed (pigweed; [1]): 0
Plant response rating, Redroot pigweed (pigweed; [2]): 0
Plant response rating, Redroot pigweed (pigweed; [3]): 0
Redroot pigweed plant response rating (0 to 10 scale) (pigweed; Preemergence, Rate 125 g/ha): 0
Redroot pigweed plant response rating (pigweed; Preemergence, Rate 250 g/ha): 0
Redroot pigweed plant response rating (pigweed; Preemergence, Rate 500 g/ha): 3
Redroot pigweed plant response rating (pigweed; Rate 62 g/ha, Postemergence): 0
Plant response rating, Redroot pigweed (pigweed; [4]): 0
Plant response rating, Cocklebur (cocklebur; [1]): 0
Plant response rating, Cocklebur (cocklebur; [2]): 0
Plant response rating, Cocklebur (cocklebur; [3]): 0
Cocklebur plant response rating (0 to 10 scale) (cocklebur; Preemergence, Rate 125 g/ha): 0
Cocklebur plant response rating (cocklebur; Preemergence, Rate 250 g/ha): 0
Cocklebur plant response rating (cocklebur; Preemergence, Rate 500 g/ha): 0
Cocklebur plant response rating (cocklebur; Rate 62 g/ha, Postemergence): 0
Plant response rating, Cocklebur (cocklebur; [4]): 0
